Values of other authors, collected in patent publication EP2959895A1, “Compositions comprising Phenylalanine and Leucine for use in the diagnosis and treatment of neurological disorders and symptoms thereof” (Rheinisch-Westfälische Technische Hochschule Aachen (RWTH), priority 2014, dated 2015).

Biological target: T1, L-1 transporter (Rattus norvegicus, UniProt Q63016)
T1 construct: blood brain barrier (BBB) transport for fourteen amino acids in anesthetized rats; host or cells: Blood-brain barrier of anesthetized rats, in vivo
T1 sequence (Q63016 whole entry): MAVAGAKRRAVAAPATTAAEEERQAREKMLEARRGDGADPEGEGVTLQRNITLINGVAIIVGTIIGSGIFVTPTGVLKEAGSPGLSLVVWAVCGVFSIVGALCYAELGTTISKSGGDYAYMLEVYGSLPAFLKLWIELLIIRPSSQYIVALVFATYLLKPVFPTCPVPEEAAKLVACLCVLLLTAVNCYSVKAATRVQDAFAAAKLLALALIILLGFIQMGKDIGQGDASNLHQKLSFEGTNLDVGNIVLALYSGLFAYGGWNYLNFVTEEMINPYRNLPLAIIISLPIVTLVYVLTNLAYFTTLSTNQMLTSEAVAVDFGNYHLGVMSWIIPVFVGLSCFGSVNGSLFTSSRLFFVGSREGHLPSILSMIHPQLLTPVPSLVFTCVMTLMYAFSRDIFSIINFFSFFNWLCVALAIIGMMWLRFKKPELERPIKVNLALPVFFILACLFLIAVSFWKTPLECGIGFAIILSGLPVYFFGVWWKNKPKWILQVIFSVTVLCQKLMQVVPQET
T1 sequence (Q794F9 whole entry partner): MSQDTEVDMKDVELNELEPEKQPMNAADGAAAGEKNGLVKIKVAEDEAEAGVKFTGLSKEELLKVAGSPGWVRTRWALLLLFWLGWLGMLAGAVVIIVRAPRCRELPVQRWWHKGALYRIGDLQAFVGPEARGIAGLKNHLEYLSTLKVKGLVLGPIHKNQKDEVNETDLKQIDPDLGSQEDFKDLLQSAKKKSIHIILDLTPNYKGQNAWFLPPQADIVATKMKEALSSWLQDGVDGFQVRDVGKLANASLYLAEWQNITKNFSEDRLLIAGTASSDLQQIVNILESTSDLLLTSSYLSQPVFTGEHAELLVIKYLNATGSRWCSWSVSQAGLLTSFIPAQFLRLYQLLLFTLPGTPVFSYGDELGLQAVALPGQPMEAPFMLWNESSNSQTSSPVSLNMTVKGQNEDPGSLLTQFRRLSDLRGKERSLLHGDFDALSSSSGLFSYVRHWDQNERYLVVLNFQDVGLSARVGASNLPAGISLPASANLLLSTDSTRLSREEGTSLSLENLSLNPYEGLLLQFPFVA
Conditions: blood brain barrier (BBB) transport, anesthetized rats; Pardridge and Oldendorf 1975

Row | Km [µM] | Structure (SMILES)
1 | 120 | N[C@@H](Cc1ccccc1)C(=O)O [phenylalanine]
2 | 150 | CC(C)C[C@H](N)C(=O)O [leucine]
